Test results as given in ChEMBL document CHEMBL1201862, “PubChem BioAssay data set” (2004).
Calls of active or inactive are those of the source.

How the values were obtained:
[1] = target: T1, Corticotropin-releasing factor receptor 2/Corticotropin-releasing factor-binding protein (Homo sapiens, UniProt P24387+Q13324); experiment: Dose Response confirmation of uHTS hits for small molecule antagonists of the CRF-binding protein and CRF-R2 receptor complex.; type: functional; details: read-out: IC50_Mean
T1 sequence (Q13324 whole entry): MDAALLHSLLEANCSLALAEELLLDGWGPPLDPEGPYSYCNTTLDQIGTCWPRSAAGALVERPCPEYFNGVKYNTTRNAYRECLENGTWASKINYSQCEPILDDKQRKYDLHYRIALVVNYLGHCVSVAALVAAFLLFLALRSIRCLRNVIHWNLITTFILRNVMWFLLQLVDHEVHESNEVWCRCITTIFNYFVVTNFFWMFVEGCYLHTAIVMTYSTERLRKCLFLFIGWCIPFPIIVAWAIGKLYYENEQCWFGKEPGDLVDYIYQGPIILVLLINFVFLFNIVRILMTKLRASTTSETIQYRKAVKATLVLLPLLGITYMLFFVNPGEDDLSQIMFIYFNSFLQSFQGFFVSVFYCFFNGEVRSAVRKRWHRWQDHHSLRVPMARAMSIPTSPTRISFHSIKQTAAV
T1 sequence (P24387 whole entry): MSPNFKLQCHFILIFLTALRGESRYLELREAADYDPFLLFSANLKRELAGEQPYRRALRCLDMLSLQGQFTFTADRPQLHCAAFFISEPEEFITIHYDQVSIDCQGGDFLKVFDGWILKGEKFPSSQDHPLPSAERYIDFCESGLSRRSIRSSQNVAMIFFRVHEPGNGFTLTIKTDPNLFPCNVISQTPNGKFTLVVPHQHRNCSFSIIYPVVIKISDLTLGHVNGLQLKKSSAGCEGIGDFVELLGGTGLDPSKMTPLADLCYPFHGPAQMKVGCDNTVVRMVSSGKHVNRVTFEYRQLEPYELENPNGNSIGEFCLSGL

[2] = target: T1, Corticotropin-releasing factor receptor 2/Corticotropin-releasing factor-binding protein; experiment: activators of CRF receptor 2 with binding protein – uHTS hits, confirmation (AID 602473); type: functional; details: read-out: EC50_Mean
[3] = target: T2, Fatty acid synthase (Homo sapiens, UniProt P49327); experiment: FAS thioesterase domain inhibitors, dose response, biochemical, endpoint fluorescence intensity, uHTS hits (AID 624327); type: functional;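 further: fluorescence from hydrolysis of an O-methyl fluorescein acyl ester substrate by the enzyme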
[4] = target: T2, Fatty acid synthase; experiment: FAS thioesterase domain inhibitors, dose response, biochemical, kinetic fluorescence intensity (AID 624326); type: functional;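 further: rate of fluorescence rise from hydrolysis of a fluorogenic O-methyl fluorescein ester substrate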
[5] = target: T3, Microphthalmia-associated transcription factor (Homo sapiens, UniProt O75030); experiment: TRPM1 promoter luciferase signal decrease, dose response, MITF inhibitor project, cell-based, SK-MEL-5, cherry-picked, set 3 (AID 493073); type: functional
T3 sequence (O75030 whole entry): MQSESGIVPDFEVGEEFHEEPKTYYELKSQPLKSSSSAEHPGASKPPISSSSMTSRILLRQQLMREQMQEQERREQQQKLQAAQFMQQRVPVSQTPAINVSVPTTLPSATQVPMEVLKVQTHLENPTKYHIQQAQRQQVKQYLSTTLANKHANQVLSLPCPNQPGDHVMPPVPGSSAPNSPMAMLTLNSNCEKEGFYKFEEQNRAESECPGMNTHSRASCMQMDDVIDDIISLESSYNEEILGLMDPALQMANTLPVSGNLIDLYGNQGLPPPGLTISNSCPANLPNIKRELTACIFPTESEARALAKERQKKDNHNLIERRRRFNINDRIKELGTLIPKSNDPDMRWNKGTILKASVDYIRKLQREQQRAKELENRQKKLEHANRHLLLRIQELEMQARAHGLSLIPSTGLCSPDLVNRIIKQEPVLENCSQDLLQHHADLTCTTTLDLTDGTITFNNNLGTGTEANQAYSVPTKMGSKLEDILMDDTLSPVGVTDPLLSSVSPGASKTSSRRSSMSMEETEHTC

[6] = target: Voltage-dependent T-type calcium channel subunit alpha-1H (Homo sapiens, UniProt O95180); type: functional;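 further: channel activity triggered by adding a high calcium stimulation buffer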
[7] = target: Induced myeloid leukemia cell differentiation protein Mcl-1 (Homo sapiens, UniProt Q07820); type: functional
[8] = target: T4, Short transient receptor potential channel 4 (Mus musculus, UniProt Q9QUQ5); experiment: mouse TRPC4 channel inhibitors, dose response, cell-based, HEK293 TRPC4/mu-opioid, Fluo-4 calcium (AID 434942); type: functional;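 further: potency of inhibitors blocking the TRPC4 calcium response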
T4 sequence (Q9QUQ5 whole entry): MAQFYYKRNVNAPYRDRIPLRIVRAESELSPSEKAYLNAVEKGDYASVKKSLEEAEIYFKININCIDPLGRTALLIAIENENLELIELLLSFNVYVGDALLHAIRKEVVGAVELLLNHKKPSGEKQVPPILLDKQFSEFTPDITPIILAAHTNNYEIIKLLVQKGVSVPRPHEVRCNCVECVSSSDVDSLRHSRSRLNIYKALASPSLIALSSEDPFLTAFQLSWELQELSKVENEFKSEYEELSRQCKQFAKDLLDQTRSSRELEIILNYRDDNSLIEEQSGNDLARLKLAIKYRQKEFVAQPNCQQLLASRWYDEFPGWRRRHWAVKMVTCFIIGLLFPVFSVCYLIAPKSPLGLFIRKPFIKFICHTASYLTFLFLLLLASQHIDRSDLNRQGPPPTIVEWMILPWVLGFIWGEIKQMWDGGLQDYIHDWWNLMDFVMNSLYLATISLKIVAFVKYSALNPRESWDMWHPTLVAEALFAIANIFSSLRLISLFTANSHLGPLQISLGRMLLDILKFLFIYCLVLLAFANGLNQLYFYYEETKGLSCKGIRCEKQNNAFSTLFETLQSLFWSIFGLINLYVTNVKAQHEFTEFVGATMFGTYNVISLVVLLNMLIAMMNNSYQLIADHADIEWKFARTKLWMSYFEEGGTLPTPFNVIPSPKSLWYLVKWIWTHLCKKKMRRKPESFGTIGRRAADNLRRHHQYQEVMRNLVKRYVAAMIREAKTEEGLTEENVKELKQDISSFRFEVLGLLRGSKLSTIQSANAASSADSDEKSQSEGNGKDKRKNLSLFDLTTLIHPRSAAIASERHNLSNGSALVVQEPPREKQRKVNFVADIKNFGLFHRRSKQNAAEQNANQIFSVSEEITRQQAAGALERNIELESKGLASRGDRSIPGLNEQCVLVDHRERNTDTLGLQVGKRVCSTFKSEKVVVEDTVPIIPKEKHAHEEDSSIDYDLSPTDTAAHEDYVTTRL

[9] = target: T5, Heat shock factor protein 1 (Mus musculus, UniProt P38532); experiment: inhibition of MG132-induced HSE-luciferase signal, confirmation, cell-based, NIH3T3, luminescence, dose retest (AID 2382); type: functional;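 further: NIH3T3 fibroblasts with HSF1-driven luciferase reporter stressed by proteasome inhibitor MG132; luminescence from HSF1-driven luciferase expression after 8 hours of MG132 stress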
T5 sequence (P38532 whole entry): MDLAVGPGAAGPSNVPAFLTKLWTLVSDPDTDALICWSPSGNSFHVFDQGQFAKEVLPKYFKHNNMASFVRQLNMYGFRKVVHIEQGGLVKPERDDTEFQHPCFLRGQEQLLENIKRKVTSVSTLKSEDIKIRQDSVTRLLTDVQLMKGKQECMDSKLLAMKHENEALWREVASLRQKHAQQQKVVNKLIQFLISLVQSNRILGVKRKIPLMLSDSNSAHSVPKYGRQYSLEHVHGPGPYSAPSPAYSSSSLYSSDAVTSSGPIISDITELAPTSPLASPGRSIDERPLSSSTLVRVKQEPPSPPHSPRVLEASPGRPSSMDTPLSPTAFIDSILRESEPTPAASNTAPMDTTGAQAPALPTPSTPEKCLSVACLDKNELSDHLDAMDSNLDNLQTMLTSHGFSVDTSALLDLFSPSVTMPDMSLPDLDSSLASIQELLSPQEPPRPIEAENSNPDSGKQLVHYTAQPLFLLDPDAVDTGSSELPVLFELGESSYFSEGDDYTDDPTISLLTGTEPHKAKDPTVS

[10] = HEp-2 cell cytotoxicity, dose response, cytotoxicity control for RSV inhibitor project, HTS (AID 2410); type: functional; details: human respiratory syncytial virus
[11] = Luminescence Cell-Based Dose Confirmation HTS to Identify Activators of 5'UTR Stem-Loop Driven Alpha-Synuclein mRNA Translation in H4 Neuroglioblastoma Cells. [Related pubchem assays: 1829 (Project Summary), 1814 (Primary HTS)]; type: functional
[12] = Luminescence Cell-Based Dose Response HTS to Identify Activators of Luciferase Translation or Activity in H4 […] Cells. [Related pubchem assays: 1829 (Project Summary), 1814 (Primary HTS)]; type: functional
[13] = test system: H4; experiment: Luminescence Cell-Based Dose Response HTS to Identify Activators of 5'UTR Stem-Loop Driven Prion Protein mRNA Translation in H4 Neuroglioblastoma Cells. [Related pubchem assays: 1829 (Project Summary), 1814 (Primary HTS)]; type: functional; details: Homo sapiens
[14] = test system: Streptococcus sp. 'group A'; experiment: growth inhibition of control SK(-) GAS strain, dose response, counter-screen for streptokinase expression inhibitor project, luminescence, kanamycin, BacTiterGlo, confirmation (AID 1900); type: functional, organism-based
[15] = target: T6, Streptokinase A (Streptococcus pyogenes serotype M1, UniProt P10520); experiment: S. pyogenes streptokinase expression inhibitors, potency, dose response, plasminogen activation absorbance, OD405 (AID 1914); type: functional, Streptococcus pyogenes M1 GAS;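 further: secreted streptokinase activity via plasminogen activation per viability signal from cell pellet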
T6 sequence (P10520 whole entry): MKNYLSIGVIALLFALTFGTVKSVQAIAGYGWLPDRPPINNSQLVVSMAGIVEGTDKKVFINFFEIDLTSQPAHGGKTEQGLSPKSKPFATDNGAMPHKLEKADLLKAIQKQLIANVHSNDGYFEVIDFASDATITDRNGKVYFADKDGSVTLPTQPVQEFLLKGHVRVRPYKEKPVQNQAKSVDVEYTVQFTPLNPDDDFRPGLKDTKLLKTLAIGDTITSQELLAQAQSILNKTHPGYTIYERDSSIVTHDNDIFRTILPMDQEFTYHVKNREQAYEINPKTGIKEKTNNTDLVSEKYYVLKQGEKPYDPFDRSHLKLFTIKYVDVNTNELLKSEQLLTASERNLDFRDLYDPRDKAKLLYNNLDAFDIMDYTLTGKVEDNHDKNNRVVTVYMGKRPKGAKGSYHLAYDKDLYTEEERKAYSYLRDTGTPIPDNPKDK

[16] = test system: Streptococcus; experiment: Group A Streptococcus viability loss, dose response, counter-screen for streptokinase expression inhibitor project, luminescence, BacTiterGlo (AID 1915); type: functional, organism-based;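 further: potency for reduction of bacterial viability or growth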
[17] = target: T7, DNA repair protein RAD52 homolog (Homo sapiens, UniProt P43351); type: functional, biochemical
T7 sequence (P43351 whole entry): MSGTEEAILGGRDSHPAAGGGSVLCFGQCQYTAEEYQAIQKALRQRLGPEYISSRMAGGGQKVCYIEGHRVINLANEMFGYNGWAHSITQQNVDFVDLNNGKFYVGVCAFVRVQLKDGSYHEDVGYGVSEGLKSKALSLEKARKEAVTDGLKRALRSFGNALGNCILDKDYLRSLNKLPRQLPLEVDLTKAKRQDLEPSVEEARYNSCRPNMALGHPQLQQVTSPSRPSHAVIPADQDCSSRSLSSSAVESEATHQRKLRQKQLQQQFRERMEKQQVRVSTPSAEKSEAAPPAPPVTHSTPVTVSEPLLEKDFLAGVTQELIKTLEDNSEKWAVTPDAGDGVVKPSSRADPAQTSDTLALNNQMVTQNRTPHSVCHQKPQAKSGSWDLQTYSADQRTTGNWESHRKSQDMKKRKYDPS

Sequence of Induced myeloid leukemia cell differentiation protein Mcl-1 (Q07820 whole entry): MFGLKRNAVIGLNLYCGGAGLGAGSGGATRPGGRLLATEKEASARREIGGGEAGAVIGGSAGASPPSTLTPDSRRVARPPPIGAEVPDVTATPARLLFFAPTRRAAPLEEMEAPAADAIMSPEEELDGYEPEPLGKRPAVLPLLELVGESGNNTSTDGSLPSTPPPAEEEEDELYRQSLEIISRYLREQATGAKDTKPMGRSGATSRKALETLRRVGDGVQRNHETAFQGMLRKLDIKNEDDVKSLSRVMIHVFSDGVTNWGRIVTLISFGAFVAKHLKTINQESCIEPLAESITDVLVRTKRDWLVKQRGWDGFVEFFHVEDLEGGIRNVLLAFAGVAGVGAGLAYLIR
T2 sequence (P49327 whole entry, the tested form may be a part): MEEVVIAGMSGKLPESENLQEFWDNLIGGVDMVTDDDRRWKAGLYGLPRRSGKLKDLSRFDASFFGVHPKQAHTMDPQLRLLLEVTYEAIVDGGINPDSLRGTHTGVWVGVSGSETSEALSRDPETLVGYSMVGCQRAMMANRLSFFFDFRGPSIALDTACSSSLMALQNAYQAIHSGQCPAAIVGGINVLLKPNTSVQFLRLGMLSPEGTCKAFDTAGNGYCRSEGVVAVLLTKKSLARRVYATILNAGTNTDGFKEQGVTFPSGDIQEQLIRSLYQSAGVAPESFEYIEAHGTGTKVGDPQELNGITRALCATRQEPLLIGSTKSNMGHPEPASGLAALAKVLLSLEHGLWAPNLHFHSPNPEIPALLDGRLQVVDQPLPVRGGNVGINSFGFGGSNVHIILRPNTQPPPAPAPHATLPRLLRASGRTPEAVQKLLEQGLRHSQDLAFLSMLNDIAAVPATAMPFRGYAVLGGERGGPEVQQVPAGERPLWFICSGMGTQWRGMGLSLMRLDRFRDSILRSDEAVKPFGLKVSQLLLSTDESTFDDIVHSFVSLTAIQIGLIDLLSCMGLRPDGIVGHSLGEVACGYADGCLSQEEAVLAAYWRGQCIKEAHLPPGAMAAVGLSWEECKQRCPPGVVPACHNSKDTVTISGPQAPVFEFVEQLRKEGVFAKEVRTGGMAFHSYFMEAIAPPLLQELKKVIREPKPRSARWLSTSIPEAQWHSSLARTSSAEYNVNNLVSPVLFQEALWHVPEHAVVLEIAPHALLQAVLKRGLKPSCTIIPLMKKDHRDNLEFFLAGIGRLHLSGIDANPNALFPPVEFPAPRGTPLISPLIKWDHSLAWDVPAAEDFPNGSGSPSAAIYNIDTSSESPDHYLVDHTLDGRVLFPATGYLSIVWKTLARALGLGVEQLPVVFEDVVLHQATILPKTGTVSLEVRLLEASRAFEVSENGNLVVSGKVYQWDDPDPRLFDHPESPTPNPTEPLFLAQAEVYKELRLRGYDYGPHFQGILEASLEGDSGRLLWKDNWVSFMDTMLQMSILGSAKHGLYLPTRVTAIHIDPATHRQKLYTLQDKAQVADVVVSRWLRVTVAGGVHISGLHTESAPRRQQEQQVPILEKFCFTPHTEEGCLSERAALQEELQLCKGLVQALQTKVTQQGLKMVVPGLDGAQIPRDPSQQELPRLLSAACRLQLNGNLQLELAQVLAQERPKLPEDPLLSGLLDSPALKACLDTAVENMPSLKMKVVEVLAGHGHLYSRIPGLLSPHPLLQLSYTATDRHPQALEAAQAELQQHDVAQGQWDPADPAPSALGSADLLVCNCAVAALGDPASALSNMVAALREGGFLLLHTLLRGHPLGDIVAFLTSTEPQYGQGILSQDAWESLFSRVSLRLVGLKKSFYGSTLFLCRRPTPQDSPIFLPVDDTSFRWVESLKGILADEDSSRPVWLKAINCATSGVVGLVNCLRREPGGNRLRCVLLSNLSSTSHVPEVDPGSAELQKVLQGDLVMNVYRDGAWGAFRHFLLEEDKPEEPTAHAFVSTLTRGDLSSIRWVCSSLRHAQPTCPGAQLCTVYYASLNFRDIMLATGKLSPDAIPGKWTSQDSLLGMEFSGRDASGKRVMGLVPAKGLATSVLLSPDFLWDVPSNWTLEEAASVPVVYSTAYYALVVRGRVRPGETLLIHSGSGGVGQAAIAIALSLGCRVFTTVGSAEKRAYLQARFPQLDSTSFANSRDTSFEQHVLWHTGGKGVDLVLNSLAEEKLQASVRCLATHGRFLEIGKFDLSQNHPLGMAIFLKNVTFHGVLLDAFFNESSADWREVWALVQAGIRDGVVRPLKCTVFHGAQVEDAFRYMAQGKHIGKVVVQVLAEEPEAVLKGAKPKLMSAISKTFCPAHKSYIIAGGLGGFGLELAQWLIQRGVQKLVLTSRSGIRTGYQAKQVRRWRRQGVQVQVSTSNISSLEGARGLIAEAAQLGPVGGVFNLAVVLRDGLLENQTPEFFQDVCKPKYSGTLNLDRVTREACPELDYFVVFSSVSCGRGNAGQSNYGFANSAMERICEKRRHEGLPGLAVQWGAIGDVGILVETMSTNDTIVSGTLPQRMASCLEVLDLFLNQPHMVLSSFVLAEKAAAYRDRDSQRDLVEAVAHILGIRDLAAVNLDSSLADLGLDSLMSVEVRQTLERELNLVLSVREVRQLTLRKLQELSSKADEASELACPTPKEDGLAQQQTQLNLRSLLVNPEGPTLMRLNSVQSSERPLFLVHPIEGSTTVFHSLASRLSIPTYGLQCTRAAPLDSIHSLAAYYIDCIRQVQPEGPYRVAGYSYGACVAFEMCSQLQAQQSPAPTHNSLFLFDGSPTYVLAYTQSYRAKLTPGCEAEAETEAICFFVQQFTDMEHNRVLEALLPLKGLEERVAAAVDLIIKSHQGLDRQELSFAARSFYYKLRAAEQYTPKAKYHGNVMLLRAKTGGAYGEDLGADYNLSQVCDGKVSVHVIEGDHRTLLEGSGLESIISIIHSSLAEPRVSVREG

## Cn1c(=O)c2cc3c(nc2n(C)c1=O)CC(c1ccccc1)CC3=O (stereo not given)
[1]
  IC50: > 47.1 µM (inactive)
[2]
  EC50: > 53 µM (inactive)
[3]
  IC50: 10.5 µM (active)
[4]
  IC50: 14.5 µM (active)

## CC(C)n1c(O)c(C2c3cc(Cl)ccc3Oc3[nH]c(=O)n(C(C)C)c(=O)c32)c(=O)[nH]c1=O (stereo not given)
[5]
  AC50: 5.39 µM (active)

## CCn1nccc1C(=O)Nc1cc(Cl)cc(Cl)c1
[6]
  EC50: 7.54 µM (active)

## Nc1cc2c(cc1[N+](=O)[O-])OCO2
[7]
  IC50: 5.21 µM (active)

## COc1cc(C(=O)N(CCc2ccccc2)C2=CC3CCC(C2)N3C)cc(OC)c1OC (stereo not given)
[8]
  EC50: 0.335 µM (active)

## S=C(NCc1ccco1)N1CCN(Cc2ccc(Cl)cc2Cl)CC1
[6]
  EC50: 4.2 µM (active)

## O=C(CSCc1cnn(-c2ccccc2)c1-n1cccc1)NCc1ccc2c(c1)OCO2
[6]
  EC50: 2.98 µM (active)

## COc1ccc(CNC(=O)CC2C[C@H](C(=O)N3CCOCC3)[C@@]3(CCC4CCCC4)c4[nH]c5ccccc5c4CCN3C2=O)cc1OC (stereo not given in full)
[3]
  IC50: 3.67 µM (active)
[4]
  IC50: 4.73 µM (active)

## Cc1[nH]c2ccc(C(=O)OC(C)C(=O)N(C)c3ccccc3)cc2c1C (stereo not given)
[8]
  EC50: 0.749 µM (active)

## CCC(C)(C)n1nnnc1C(c1ccc(O)c(OC)c1)N1CCc2ccccc2C1 (stereo not given)
[7]
  IC50: 6.3 µM (active)

## COc1ccc(N2CCN(C(=O)CCc3nc(-c4ccc(C)cc4)no3)CC2)cc1
[6]
  EC50: 2.1 µM (active)

## O=C(CSc1nc2ccccc2[nH]1)Nc1ccc(F)c(F)c1
[9]
  EC50: > 195 µM (not active)
[6]
  EC50: 6.59 µM (active)

## N=c1n(CCO)c2ccccc2n1Cc1ccc(Cl)cc1
[8]
  EC50: 3.35 µM (active)

## Cc1cc(Nc2ccc(C)c(C)c2)c2ccccc2n1
[10]
  CC50: 26.1 µM (active)
[8]
  EC50: 2.11 µM (active)

## Cc1cccc(OCC(=O)Nc2ccccc2N2CCN(C(=O)C(C)C)CC2)c1C
[6]
  EC50: 2.13 µM (active)

## N#C/C(=C(/O)c1ccc(-c2cccc([N+](=O)[O-])c2)o1)c1nc2ccccc2s1
[11]
  EC50: > 120 µM (not active)
[12]
  EC50: 9.39 µM (active)
[13]
  EC50: > 120 µM (not active)
[7]
  IC50: 5.38 µM (active)

## CCCCCCCCCCCCOC(=O)C[N+](C)(C)C
[14]
  EC50: 3.32 µM (active)
[15]
  EC50: 20.7 µM (active)
[16]
  EC50: 10.6 µM (active)
[8]
  EC50: 2.99 µM (active)
[17]
  AC50: 26.4 µM (active)
